Test results reported in patent US6329000A, “Extract of pine needle and the use thereof” (priority 1999, dated 2001).

Experiments:
blood-lipid = assay: Hypolipidemic test in rabbits on high fat diet; type: in vivo, rabbit; details: positive control 0.3 g/kg/d
Description: Experimental animals: 60 Beijing white rabbits with big ears, all male with body weight of 1.5-2 kg.
Drugs and reagents: cholesterol (produced at Beijing Chemical Reagent Company). Propyl thiooxyuracil tablet (refers to PTV hereafter, produced in Germany, 50 mg each tablet), lard (prepared by ourselves). The extract powder from pine needle of the invention (refers to the power of pine needle hereafter). Inostitol hexanicotinate tablet (produced by the second Pharmaceutical Factory of Beijing, 0.2 each tablet). The kits of total cholesterol, triglyceride, high density lipoprotein, and low density lipoprotein (produced by Beijing Zhongsheng Biotechnical Company).
Methods: The white rabbits with big ears were divided into 5 groups at random after raised for 10 days with normal diet. 10 rabbits each group. The high fat diet was given after taking blood from the helicine veins of the fasting rabbits in the morning. Determined the blood-lipid of the blood samples. The high fat diet included cholesterol 2 g/kg (body weight)/d, lard 0.5 g/kg/d, PTV 12.5 mg/kg/d. In the forth group, gave […] of the powder of pine needle along with the high fat diet to the rabbits of (the prevention group). Took blood from the fasting rabbits again and determined their body weights after 15 days of high-fat diet. Then stopped the high-fat diet and changed it for normal diet: (1) blank control group: giving distilled water 10 ml each day with the gavage method; (2) positive control group: giving Inositol hexnicotinate tablets, 0.3 g/kg/d; (3) low dose group: giving the powder of pine needle, 0.25 g/kg/d; (4) prevention group: went on giving the powder of pine needle 0.75 g/kg/d, 30 days in all; (5) high dose group: giving the powder of pine needle, 1.5 g/kg/d. The powder was dissolve din 10 ml distilled water and gave it with gavage method once a day. Took blood from the fasting rabbits on the fifteenth day after the administration to determine the levels of blood-lipid. The levels of total cholestorol, triglyceride, high density lipoprotein and low density lipoprotein were examined by CHOO-PAP method, GPO-PAP method, PTA-Mg^2+ deposition method and PVS one-step deposition method, respectively. The instrument used was Hitachi, Model 750 automatic biochemical analyzer.

blood pressure = assay: Clinical test of the composition to lower blood pressure; type: in vivo, human; details: 44 cases per group, 20 days
Description: All of them were diagnosed as hypertension according to the diagnostic standard of WHO. […] The patients of the control group were treated with Captopril. The patients of the control group were adults aged below 59, and their average age was 47±7.8. The patients stopped taking hypotensor a week before taking part in the test. […] If the blood pressure was not reduced to the normal scope, then a dose (0.5 g) was increased every 5 days. The crescendo every 5 days, and the maximal dose couldn't exceed 3 g each time and 3 times a day. The whole course of treatment was 20 days. 25 mg Captopril was given to the patients of the control group each time and three times a day. […] The crescendo every 5 days, and the maximal dose couldn't exceed 75 mg each time and three times a day. The whole course of treatment was 20 days too.
The blood pressure before treatment: All the patients stopped taking hypotensor a week before treatment. Then the blood pressure was measured once a day continuously for 5 days. Took the mean of the 5 values (non same day) as the blood pressure before treatment.
The blood pressure after treatment: Measured the blood pressure once a day after the treatment. Took the mean of the 5 values measured on the 16th, 17th, 18th, 19th, 20th day after the treatment as the blood pressure after the treatment. Examined the blood routine, the urine routine, the functions of liver, the renal function, the serum electrolyte (including K^+, Na^+, Cl^-), the blood-lipid, the blood sugar, the ECG of every day before and after the treatment.
The criteria of therapeutic effect:
As to the systolic hypertension, the systolic pressure was reduced more than 4 kpa. Ineffectiveness: The decrement of the blood pressure after the treatment didn't achieve the above standard.

Compound	high density lipoprotein IR % (increasing rate) (blood-lipid)	low density lipoprotein DR % (blood-lipid)	total cholesterol DR % (decreasing rate) (blood-lipid)	triglyceride DR % (blood-lipid)	high density lipoprotein after treatment (blood-lipid; after HFD 0.83)	triglyceride after treatment (blood-lipid; after HFD 1.87)	low density lipoprotein after treatment (blood-lipid; after HFD 9.20)	total cholesterol after treatment (blood-lipid; after HFD 26.67)	Effectiveness (blood pressure)	ineffectiveness (blood pressure)	total effective rate (blood pressure)	remarkable effectiveness (blood pressure; composition 1.5-3 g t.i.d., captopril 25-75 mg t.i.d.)
O=C(O[C@H]1[C@H](OC(=O)c2cccnc2)[C@@H](OC(=O)c2cccnc2)[C@H](OC(=O)c2cccnc2)[C@@H](OC(=O)c2cccnc2)[C@H]1OC(=O)c1cccnc1)c1cccnc1 [Inositol hexanicotinate]	8.90%	37.38%	28.20%	16.03%	0.74	1.64	5.71	19.48	–	–	–	–
C[C@H](CS)C(=O)N1CCC[C@H]1C(=O)O [captopril]	–	–	–	–	–	–	–	–	10 case number	8 case number	82%	26 case number
